Like-named read-outs stand apart in the source and are kept apart here.
Experiments:
[1] = tested on: NFF, neonatal foreskin fibroblasts; experiment: Cell survival assay (clonogenic survival, SRB), normal cells; format: cell-based, human; settings: SRB
Procedure: (§1) The cytotoxicities of the compounds of the invention were determined by clonogenic survival of human cancer cells (MM96L, melanoma) and human normal cells (NFF, neonatal foreskin fibroblasts). Cells were incubated with the compounds at various concentrations of compound (0.01-10 μg/mL) for 24 hours, washed, and then grown for a further four days in the absence of hydroxamic acid before determining cell survival by cell count. The final readout involved staining with sulforhodamine B (SRB), a cost-effective method amenable to automation and high throughput analysis. At the technical level, “cell sensitivity” is often inferred from short term (1-2 day) observations such as apoptosis, which may not be a satisfactory model of clonogenic survival.
(§2) Cell Lines and Culture Medium. All cell lines used in this study have been described previously (Parsons et al., 1986; Todaro et al., 1980; Glenn et al., 2004). All cell lines were cultured in 10% heat-inactivated foetal calf serum (CSL, Australia) in RPMI 1640 medium supplemented with 100 U/mL penicillin, 100 μg/mL streptomycin, and 3 mM HEPES at 5% CO2, 99% humidity at 37° C. Primary human fibroblasts were obtained from neonatal foreskins and cultured in the above medium. Routine mycoplasma tests were performed using Hoechst stain^i and were always negative.
(§3) Cell Survival Assay. Cells were plated into 96-well microtitre plates at 5×10^3 cells/well, and allowed to adhere overnight. Test compounds were added to culture medium at the indicated concentrations, and plates incubated in the above conditions for 24 hours. Following this incubation period, compounds and media were removed, and replaced with fresh culture medium. Cells were then grown for a further 72 hours before assay using sulforhodamine B (SRB; Sigma, St. Louis, Mo.) as previously described. Briefly, the culture medium was removed from the 96-well microtitre plates and the plates washed twice with phosphate buffered saline (PBS), before the cells were fixed with methylated spirits for 15 minutes. The plates were then rinsed with tap water and the fixed cells stained with 50 μL/well of SRB solution (0.4% sulforhodamine B (w/v) in 1% (v/v) acetic acid) over a period of 1 hour. The SRB solution was then removed from the wells and the plates rapidly washed two times with 1% (v/v) acetic acid. Protein bound dye was then solubilised with the addition of 100 μL of 10 mM unbuffered Tris, and incubated for 15 min at 25° C. Plates were then read at 564 nm on a VERSA max tunable microplate reader (Molecular Devices, Sunnyvale, Calif.).

MM96L melanoma cells = experiment: Cell survival assay (clonogenic survival, SRB); format: cell-based, human; settings: for SI (Selectivity Index = IC50 (NFF)/IC50 (MM96L)): NFF vs MM96L
Procedure: as §1, §2, §3

[2] = Homo sapiens, Fibroblast, 24 h, Table 7, 24 hours with compound, further growth, read-out: IC50 (μM) NFF
[3] = Homo sapiens, MM96L, 24 h, Table 7, 24 hours with compound, further growth, SRB, read-out: IC50 (μM) MM96L
[4] = Table 7, IC50 (NFF)/IC50 (MM96L)
[5] = Table 5, 24 hours with compound, further growth, read-out: IC50 NFF
[6] = Table 5, 24 hours with compound, further growth, SRB, read-out: IC50 MM96L
[7] = Table 5, Selectivity Index = IC50 (NFF)/IC50 (MM96L)
[8] = NFF normal fibroblasts, 24 h with compound, further 72 h growth, read-out: IC50 (uM) NFF
[9] = Homo sapiens, MM96L, most preferred compounds, exemplary examples, read-out: potency of IC50 against the MM96 melanoma cells
[10] = MM96L melanoma, 24 h with compound, further 72 h growth, SRB, read-out: IC50 (uM) MM96L
[11] = Table 8, 24 hours with compound, further growth, read-out: IC50 (μM) NFF
[12] = Table 8, 24 hours with compound, further growth, SRB, read-out: IC50 (μM) MM96
[13] = Table 8, IC50 (NFF)/IC50 (MM96L)
[14] = Table 6, 24 hours with compound, further growth, read-out: IC50 (μM) NFF
[15] = Table 6, 24 hours with compound, further growth, SRB, read-out: IC50 (μM) MM96L
[16] = Table 6, IC50 (NFF)/IC50 (MM96L)
[17] = Homo sapiens, Fibroblast, 24 h, Table 6, 24 hours with compound, further growth, read-out: IC50 (μM) NFF
[18] = Homo sapiens, MM96L, 24 h, Table 6, 24 hours with compound, further growth, SRB, read-out: IC50 (μM) MM96L
[19] = Homo sapiens, Fibroblast, NFF normal fibroblasts, 24 h with compound, further 72 h growth, read-out: IC50 (uM) NFF
[20] = Homo sapiens, MM96L, MM96L melanoma, 24 h with compound, further 72 h growth, SRB, read-out: IC50 (uM) MM96L

## O=C(/C=C/c1ccccc1)N[C@@H](CSCCCC(=O)NO)C(=O)Nc1ccncc1 [Example 97]
[1]; [2]
  IC50: 1.6 ± 0.3 µM
MM96L melanoma cells; [3]
  IC50: 0.5 ± 0.2 µM
MM96L melanoma cells; [4]
  Selectivity: 3.3

## O=C(CCCSC[C@H](NC(=O)Cc1cccc([N+](=O)[O-])c1)C(=O)NCc1ccccc1)NO [Example 41]
[1]; [5]
  IC50: > 100 µM
MM96L melanoma cells; [6]
  IC50: 12 ± 1 µM
MM96L melanoma cells; [7]
  Selectivity: >8

## O=C(/C=C/c1ccccc1)N[C@@H](CCCCCC(=O)NO)C(=O)NCc1ccccc1 [Example 137]
[1]; [8]
  IC50: 4.01 µM
MM96L melanoma cells; [9]
  IC50: ≤ 0.5 µM
MM96L melanoma cells; [10]
  IC50: 0.46 µM
MM96L melanoma cells
  SI (Selectivity Index = IC50 (NFF)/IC50 (MM96L)): 8.7

## CC(C)CCC(=O)N[C@@H](CSCCCC(=O)NO)C(=O)NCc1ccccc1 [Example 50]
[1]; [5]
  IC50: 25 ± 4 µM
MM96L melanoma cells; [6]
  IC50: 7 ± 2 µM
MM96L melanoma cells; [7]
  Selectivity: 3.6

## O=C(CCCSC[C@H](NS(=O)(=O)c1ccccc1)C(=O)NCc1ccccc1)NO [Example 58]
[1]; [5]
  IC50: > 100 µM
MM96L melanoma cells; [6]
  IC50: < 100 µM
MM96L melanoma cells; [7]
  Selectivity: >1

## O=C(CCCSC[C@H](NC(=O)c1ccc(F)cc1)C(=O)NCc1ccccc1)NO [Example 29]
[1]; [5]
  IC50: 26 ± 1 µM
MM96L melanoma cells; [6]
  IC50: 5.2 ± 0.6 µM
MM96L melanoma cells; [7]
  Selectivity: 5.0

## O=C(/C=C/c1ccccc1)N[C@@H](CSCCCC(=O)NO)C(=O)NCc1ccncc1 [Example 100]
[1]; [2]
  IC50: 1.6 ± 0.2 µM
MM96L melanoma cells; [3]
  IC50: 0.34 ± 0.02 µM
MM96L melanoma cells; [9]
  IC50: ≤ 0.5 µM
MM96L melanoma cells; [4]
  Selectivity: 4.8

## CN(C)c1ccc(C(=O)N[C@@H](CSCCCC(=O)NO)C(=O)NCc2ccc(C(=O)Nc3ccc4cn[nH]c4c3)cc2)cc1 [Example 114]
[1]; [11]
  IC50: 12.2 µM
MM96L melanoma cells; [12]
  IC50: 1.5 µM
MM96L melanoma cells; [13]
  Selectivity: 8.1

## CN(C)c1ccc(C(=O)N[C@@H](CSCCCC(=O)NO)C(=O)NCc2ccc(C(=O)Nc3ccncc3)cc2)cc1 [Example 107]
[1]; [11]
  IC50: 16.9 µM
MM96L melanoma cells; [12]
  IC50: 2.96 µM
MM96L melanoma cells; [13]
  Selectivity: 5.7

## CN(C)c1ccc(C(=O)N[C@@H](CSCCCC(=O)NO)C(=O)NC2(Cc3ccccc3)CCCC2)cc1 [Example 87]
[1]; [14]
  IC50: 4.2 ± 0.5 µM
MM96L melanoma cells; [15]
  IC50: 0.6 ± 0.1 µM
MM96L melanoma cells; [16]
  Selectivity: 7.0

## CN(C)c1ccc(C(=O)N[C@@H](CSCCCC(=O)NO)C(=O)NCc2cccc3ccccc23)cc1 [Example 75]
[1]; [17]
  IC50: 0.42 ± 0.05 µM
MM96L melanoma cells; [18]
  IC50: 0.2 ± 0.02 µM
MM96L melanoma cells; [16]
  Selectivity: 2.1

## CN(C)c1ccc(C(=O)N[C@@H](CSCCCC(=O)NO)C(=O)NCc2ccc(C(=O)NCc3nc4ccccc4[nH]3)cc2)cc1 [Example 113]
[1]; [11]
  IC50: 15.8 µM
MM96L melanoma cells; [12]
  IC50: 3.96 µM
MM96L melanoma cells; [13]
  Selectivity: 4.0

## O=C(CCCCC[C@H](NC(=O)c1cc2ccccc2[nH]1)C(=O)NC1(Cc2ccccc2)CCCC1)NO [Example 129]
[1]; [19]
  IC50: 1.6 ± 0.2 µM
MM96L melanoma cells; [20]
  IC50: 0.9 ± 0.2 µM
MM96L melanoma cells
  SI (Selectivity Index = IC50 (NFF)/IC50 (MM96L)): 1.7

## CN(C)c1ccc(C(=O)N[C@@H](CSCCCC(=O)NO)C(=O)NCc2ccccn2)cc1 [Example 82]
[1]; [17]
  IC50: 6.5 ± 0.3 µM
MM96L melanoma cells; [18]
  IC50: 1.2 ± 0.1 µM
MM96L melanoma cells; [16]
  Selectivity: 5.5

## CN(C)c1ccc(C(=O)N[C@@H](CSCCCC(=O)NO)C(=O)Nc2ccccc2-c2ccccc2)cc1 [Example 62]
[1]; [17]
  IC50: 4.4 ± 0.6 µM
MM96L melanoma cells; [18]
  IC50: 2.1 ± 0.2 µM
MM96L melanoma cells; [16]
  Selectivity: 2.1

## CN(C)c1ccc(C(=O)NC(CSCCCC(=O)NO)C(=O)NCc2ccc(C(=O)NC(c3ccccc3)C(O)c3ccccc3)cc2)cc1 (stereo not shown) [Example 112]
[1]; [11]
  IC50: 14.3 µM
MM96L melanoma cells; [12]
  IC50: 2.87 µM
MM96L melanoma cells; [13]
  Selectivity: 5.0

## COc1cc(OC)cc(C(=O)N[C@@H](CSCCCC(=O)NO)C(=O)NCc2ccccc2)c1 [Example 30]
[1]; [5]
  IC50: 4.5 ± 0.6 µM
MM96L melanoma cells; [6]
  IC50: 1.7 ± 0.3 µM
MM96L melanoma cells; [7]
  Selectivity: 2.6

## O=C(CCCCC[C@H](NC(=O)Cc1ccc(-c2ccccc2)cc1)C(=O)NCc1ccccc1)NO [Example 140]
[1]; [19]
  IC50: 5.13 µM
MM96L melanoma cells; [20]
  IC50: 2.36 µM
MM96L melanoma cells
  SI (Selectivity Index = IC50 (NFF)/IC50 (MM96L)): 2.2

## O=C(CCCCC[C@H](NC(=O)c1cc2ccccc2[nH]1)C(=O)NCc1ccccc1)NO [Example 131]
[1]; [8]
  IC50: 0.572 µM
MM96L melanoma cells; [10]
  IC50: 0.08 µM
MM96L melanoma cells
  SI (Selectivity Index = IC50 (NFF)/IC50 (MM96L)): 7.1

## O=C(CCCSC[C@H](NC(=O)c1cccnc1)C(=O)NCc1ccccc1)NO [Example 36]
[1]; [5]
  IC50: > 100 µM
MM96L melanoma cells; [6]
  IC50: 12.8 ± 0.8 µM
MM96L melanoma cells; [7]
  Selectivity: >8

## CN(C)c1ccc(C(=O)N[C@@H](CSCCCC(=O)NO)C(=O)NCCc2cccc(Br)c2)cc1 [Example 85]
[1]; [14]
  IC50: 3.1 ± 0.1 µM
MM96L melanoma cells; [15]
  IC50: 0.9 ± 0.1 µM
MM96L melanoma cells; [16]
  Selectivity: 3.4

## CN(C)c1ccc(C(=O)N[C@@H](CSCCCC(=O)NO)C(=O)NCC2CCCCC2)cc1 [Example 88]
[1]; [17]
  IC50: 3.6 ± 0.2 µM
MM96L melanoma cells; [18]
  IC50: 0.51 ± 0.09 µM
MM96L melanoma cells; [16]
  Selectivity: 7.1

## CN(C)c1ccc(C(=O)N[C@@H](CSCCCC(=O)NO)C(=O)Nc2ccc3cc4ccccc4cc3c2)cc1 [Example 72]
[1]; [17]
  IC50: 1.14 ± 0.06 µM
MM96L melanoma cells; [18]
  IC50: 0.55 ± 0.07 µM
MM96L melanoma cells; [16]
  Selectivity: 2.1

## CN(C)c1ccc(C(=O)N[C@@H](CSCCCC(=O)NO)C(=O)NCc2ccc(C(=O)Nc3ccccc3Cc3ccccc3)cc2)cc1 [Example 120]
[1]; [11]
  IC50: 2.32 µM
MM96L melanoma cells; [12]
  IC50: 1.02 µM
MM96L melanoma cells; [13]
  Selectivity: 2.4

## O=C(CCCSC[C@H](NC(=O)Cc1cccc2ccccc12)C(=O)NCc1ccccc1)NO [Example 45]
[1]; [5]
  IC50: 15 ± 1 µM
MM96L melanoma cells; [6]
  IC50: 4.1 ± 0.7 µM
MM96L melanoma cells; [7]
  Selectivity: 3.7

## O=C(CCCSC[C@H](NC(=O)c1ccco1)C(=O)NCc1ccccc1)NO [Example 34]
[1]; [5]
  IC50: 22 ± 1 µM
MM96L melanoma cells; [6]
  IC50: 7.2 ± 0.2 µM
MM96L melanoma cells; [7]
  Selectivity: 3.1

## O=C(CCCCC[C@H](NC(=O)c1cc2c(O)cccc2[nH]1)C(=O)NCc1ccccc1)NO [Example 166]
[1]; [19]
  IC50: 2.21 µM
MM96L melanoma cells; [20]
  IC50: 0.331 µM
MM96L melanoma cells; [9]
  IC50: ≤ 0.5 µM
MM96L melanoma cells
  SI (Selectivity Index = IC50 (NFF)/IC50 (MM96L)): 6.7

## CN(C)c1ccc(C(=O)N[C@@H](CSCCCC(=O)NO)C(=O)Nc2ccccc2Cc2ccccc2)cc1 [Example 64]
[1]; [17]
  IC50: 6.8 ± 0.4 µM
MM96L melanoma cells; [18]
  IC50: 3.5 ± 0.2 µM
MM96L melanoma cells; [16]
  Selectivity: 1.9

## O=C(CCCSC[C@H](NC(=O)c1cc2ccccc2cc1O)C(=O)NCc1ccccc1)NO [Example 39]
[1]; [5]
  IC50: > 100 µM
MM96L melanoma cells; [6]
  IC50: 13 ± 2 µM
MM96L melanoma cells; [7]
  Selectivity: >8

## CC(=O)c1cccc(NC(=O)[C@H](CSCCCC(=O)NO)NC(=O)c2ccc(N(C)C)cc2)c1 [Example 60]
[1]; [17]
  IC50: 1.6 ± 0.08 µM
MM96L melanoma cells; [18]
  IC50: 0.55 ± 0.05 µM
MM96L melanoma cells; [16]
  Selectivity: 2.9

## O=C(CCCCCC(NC(=O)C(Cc1ccccc1)NC(=O)Cc1c[nH]c2ccccc12)C(=O)NCc1ccccc1)NO (stereo not shown) [Example 164]
[1]; [8]
  IC50: 9.76 µM
